Measurements reported in patent publication US20140213576A1, “NOVEL COMPOUND USEFUL FOR THE TREATMENT OF DEGENERATIVE AND INFLAMMATORY DISEASES” (GALAPAGOS NV, priority 2013, published 2014).

Legend:
HeLa cells = test: JAK-STAT signalling assay (OSM-triggered pSTAT1(2)-luciferase reporter); format: cell-based; conditions: human OSM 33 ng/mL, STAT1 luciferase reporter, individual determinations
Procedure: HeLa cells were maintained in Dulbecco's Modified Eagle's Medium (DMEM) containing 10% heat inactivated fetal calf serum, 100 U/mL penicillin and 100 μg/mL streptomycin. HeLa cells were used at 70% confluence for transfection. 20,000 cells in 87 μL cell culture medium were transiently transfected with 40 ng pSTAT1(2)-luciferase reporter (Panomics), 8 ng of LacZ reporter as internal control reporter and 52 ng of pBSK using 0.32 μL Jet-PEI (Polyplus) as transfection reagent per well in 96-well plate format. After overnight incubation at 37° C., 5% CO2, transfection medium was removed. 81 μL of DMEM+1.5% heat inactivated fetal calf serum was added. […]
40 μL of cell lysate was used to read β-galactosidase activity by adding 180 μL β-Gal solution (30 μL ONPG 4 mg/mL+150 μL β-Galactosidase buffer (0.06 M Na2HPO4, 0.04 M NaH2PO4, 1 mM MgCl2)) for 20 min. The reaction was stopped by addition of 50 μL Na2CO3 1 M. Absorbance was read at 405 nm.
Luciferase activity was measured using 40 μL cell lysate plus 40 μL of Steadylite® as described by the manufacturer (Perkin Elmer), on the Envision (Perkin Elmer). […]
Percentage inhibition=((fluorescence determined in the presence of vehicle−fluorescence determined for sample with test compound present) divided by (fluorescence determined in the presence of vehicle−fluorescence determined for sample without trigger))[…]. […]

JAK3 = target: T1, JAK3 (Homo sapiens, UniProt P52333); test: JAK3 Ki determination assay; format: biochemical; conditions: Lineweaver-Burk, varying ATP, polyGT substrate; read-out: Ki against JAK3
T1 construct: purchased Carna Biosciences 09CBS-0625B
T1 sequence (P52333 1-1124): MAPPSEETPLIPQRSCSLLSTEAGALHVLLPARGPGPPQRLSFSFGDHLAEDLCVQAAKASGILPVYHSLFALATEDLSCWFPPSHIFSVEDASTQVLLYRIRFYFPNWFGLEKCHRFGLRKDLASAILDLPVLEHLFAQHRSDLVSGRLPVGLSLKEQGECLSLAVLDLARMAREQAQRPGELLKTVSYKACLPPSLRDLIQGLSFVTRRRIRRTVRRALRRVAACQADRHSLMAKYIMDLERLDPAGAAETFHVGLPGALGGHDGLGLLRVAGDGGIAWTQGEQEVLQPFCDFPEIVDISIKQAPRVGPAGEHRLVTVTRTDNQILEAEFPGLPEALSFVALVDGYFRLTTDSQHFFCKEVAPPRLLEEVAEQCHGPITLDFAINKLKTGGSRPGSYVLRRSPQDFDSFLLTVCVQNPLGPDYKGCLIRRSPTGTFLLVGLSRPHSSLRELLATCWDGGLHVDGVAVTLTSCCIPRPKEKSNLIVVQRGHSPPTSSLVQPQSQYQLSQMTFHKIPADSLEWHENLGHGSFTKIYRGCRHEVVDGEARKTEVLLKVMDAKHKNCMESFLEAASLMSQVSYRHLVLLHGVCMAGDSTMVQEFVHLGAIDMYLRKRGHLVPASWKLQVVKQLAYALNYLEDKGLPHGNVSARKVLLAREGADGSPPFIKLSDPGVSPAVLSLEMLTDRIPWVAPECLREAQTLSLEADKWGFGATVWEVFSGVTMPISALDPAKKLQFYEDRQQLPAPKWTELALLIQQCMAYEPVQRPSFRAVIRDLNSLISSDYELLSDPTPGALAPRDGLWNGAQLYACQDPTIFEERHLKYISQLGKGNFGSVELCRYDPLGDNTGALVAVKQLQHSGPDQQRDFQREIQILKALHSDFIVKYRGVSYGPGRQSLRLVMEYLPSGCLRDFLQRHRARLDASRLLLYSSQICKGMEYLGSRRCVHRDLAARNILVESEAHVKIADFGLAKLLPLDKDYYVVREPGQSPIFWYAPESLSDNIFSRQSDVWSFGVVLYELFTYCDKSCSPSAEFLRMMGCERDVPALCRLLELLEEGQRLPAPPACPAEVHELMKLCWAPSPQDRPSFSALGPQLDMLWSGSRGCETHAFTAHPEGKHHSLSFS
Procedure: For the determination of Ki, different amounts of compound were mixed with the enzyme and the enzymatic reaction was followed as a function of ATP concentration. The Ki was determined by means of double reciprocal plotting of Km vs compound concentration (Lineweaver-Burk plot). JAK3 (Carna Biosciences, 09CBS-0625B) was used at a final concentration of 10 ng/mL. The substrate was Poly(Glu,Tyr)sodium salt (4:1), MW 20 000-50 000 (Sigma, P0275) The reaction was performed in 25 mM Tris pH 7.5, 0.01% Triton X-100, 0.5 mM EGTA, 2.5 mM DTT, 0.5 mM Na3VO4, 5 mM b-glycerolphosphate, 10 mM MgCl2 with varying concentrations of ATP and compound and stopped by addition of 150 mM phosphoric acid. Measurement of incorporated phosphate into the substrate polyGT was done by loading the samples on a filter plate (using a harvester, Perkin Elmer) and subsequent washing. Incorporated ^33P in polyGT was measured in a Topcount scintillation counter after addition of scintillation liquid to the filter plates (Perkin Elmer).

TYK2 = target: T2, TYK2 (Homo sapiens, UniProt P29597); test: TYK2 Ki determination assay (kinase tracer 236 binding); conditions: binding experiment, 50 nM kinase tracer 236; read-out: Ki against TYK2
T2 construct: purchased Carna Biosciences 09CBS-0983D
T2 sequence (P29597 whole entry): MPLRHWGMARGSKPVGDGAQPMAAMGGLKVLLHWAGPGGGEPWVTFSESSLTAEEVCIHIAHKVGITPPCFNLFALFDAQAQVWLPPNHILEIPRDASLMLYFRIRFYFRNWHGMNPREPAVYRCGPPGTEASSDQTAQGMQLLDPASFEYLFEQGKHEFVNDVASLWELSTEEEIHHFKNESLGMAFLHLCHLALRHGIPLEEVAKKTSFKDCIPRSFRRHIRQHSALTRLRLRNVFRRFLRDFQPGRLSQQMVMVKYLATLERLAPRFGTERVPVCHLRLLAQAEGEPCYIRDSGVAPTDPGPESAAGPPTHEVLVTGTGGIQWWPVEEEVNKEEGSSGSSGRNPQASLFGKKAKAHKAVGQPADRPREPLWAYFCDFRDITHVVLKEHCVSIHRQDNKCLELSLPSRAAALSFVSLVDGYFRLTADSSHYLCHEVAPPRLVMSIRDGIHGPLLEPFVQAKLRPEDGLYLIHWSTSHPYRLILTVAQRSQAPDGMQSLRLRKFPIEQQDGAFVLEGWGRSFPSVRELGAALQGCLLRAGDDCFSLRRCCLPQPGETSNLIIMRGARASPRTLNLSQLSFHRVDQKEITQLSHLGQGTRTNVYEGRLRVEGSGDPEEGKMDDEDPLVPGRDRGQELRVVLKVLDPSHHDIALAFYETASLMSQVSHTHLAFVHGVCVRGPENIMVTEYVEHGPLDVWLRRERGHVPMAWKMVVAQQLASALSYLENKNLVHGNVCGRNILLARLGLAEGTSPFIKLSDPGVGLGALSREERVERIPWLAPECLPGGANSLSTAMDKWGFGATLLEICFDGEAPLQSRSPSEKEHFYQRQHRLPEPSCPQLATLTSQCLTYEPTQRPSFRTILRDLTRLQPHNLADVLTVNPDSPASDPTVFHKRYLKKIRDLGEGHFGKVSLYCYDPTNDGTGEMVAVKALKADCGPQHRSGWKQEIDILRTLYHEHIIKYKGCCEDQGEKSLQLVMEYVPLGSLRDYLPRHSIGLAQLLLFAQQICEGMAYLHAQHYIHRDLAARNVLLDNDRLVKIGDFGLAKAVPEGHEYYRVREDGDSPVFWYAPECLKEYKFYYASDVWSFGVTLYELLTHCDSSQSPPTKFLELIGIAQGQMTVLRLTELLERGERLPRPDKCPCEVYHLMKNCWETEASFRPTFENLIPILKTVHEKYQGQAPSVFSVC
Procedure: TYK2 (Carna Biosciences, 09CBS-0983D) was used at a final concentration of 5 nM. The binding experiment was performed in 50 mM Hepes pH 7.5, 0.01% Brij-35, 10 mM MgCl2, 1 mM EGTA using 50 nM kinase tracer 236 (Invitrogen, PV5592) and 2 nM Eu-anti-GST (Invitrogen, PV5594) with varying compound concentrations. Detection of tracer was performed according to the manufacturers’ procedure.

IC50 (HeLa cells; Homo sapiens, HeLa): 1650 nM
IC50 (HeLa cells; listed as compound of the invention): 1660 nM
Ki (JAK3): 685 nM
Ki (TYK2): 336 nM
Compound: CCc1cc(C2CN(S(C)(=O)=O)C2)ncc1N(C)c1cc2c(cn1)ncn2C [Compound 1, [4-Ethyl-6-(1-methanesulfonyl-azetidin-3-yl)-pyridin-3-yl]-methyl-(1-methyl-1H-imidazo[4,5-d]pyridin-6-yl)-amine]
